Literature values in patent US6806274B1, “Quinazoline derivatives” (AstraZeneca UK Limited, priority 1999, dated 2004).

Target: EGF RTK (Homo sapiens, UniProt P00533)
Conditions: Bioorganic & Medicinal Chemistry Letters, 1997, 7, 2723-2728

EGF RTK, sequence (P00533 25-1210): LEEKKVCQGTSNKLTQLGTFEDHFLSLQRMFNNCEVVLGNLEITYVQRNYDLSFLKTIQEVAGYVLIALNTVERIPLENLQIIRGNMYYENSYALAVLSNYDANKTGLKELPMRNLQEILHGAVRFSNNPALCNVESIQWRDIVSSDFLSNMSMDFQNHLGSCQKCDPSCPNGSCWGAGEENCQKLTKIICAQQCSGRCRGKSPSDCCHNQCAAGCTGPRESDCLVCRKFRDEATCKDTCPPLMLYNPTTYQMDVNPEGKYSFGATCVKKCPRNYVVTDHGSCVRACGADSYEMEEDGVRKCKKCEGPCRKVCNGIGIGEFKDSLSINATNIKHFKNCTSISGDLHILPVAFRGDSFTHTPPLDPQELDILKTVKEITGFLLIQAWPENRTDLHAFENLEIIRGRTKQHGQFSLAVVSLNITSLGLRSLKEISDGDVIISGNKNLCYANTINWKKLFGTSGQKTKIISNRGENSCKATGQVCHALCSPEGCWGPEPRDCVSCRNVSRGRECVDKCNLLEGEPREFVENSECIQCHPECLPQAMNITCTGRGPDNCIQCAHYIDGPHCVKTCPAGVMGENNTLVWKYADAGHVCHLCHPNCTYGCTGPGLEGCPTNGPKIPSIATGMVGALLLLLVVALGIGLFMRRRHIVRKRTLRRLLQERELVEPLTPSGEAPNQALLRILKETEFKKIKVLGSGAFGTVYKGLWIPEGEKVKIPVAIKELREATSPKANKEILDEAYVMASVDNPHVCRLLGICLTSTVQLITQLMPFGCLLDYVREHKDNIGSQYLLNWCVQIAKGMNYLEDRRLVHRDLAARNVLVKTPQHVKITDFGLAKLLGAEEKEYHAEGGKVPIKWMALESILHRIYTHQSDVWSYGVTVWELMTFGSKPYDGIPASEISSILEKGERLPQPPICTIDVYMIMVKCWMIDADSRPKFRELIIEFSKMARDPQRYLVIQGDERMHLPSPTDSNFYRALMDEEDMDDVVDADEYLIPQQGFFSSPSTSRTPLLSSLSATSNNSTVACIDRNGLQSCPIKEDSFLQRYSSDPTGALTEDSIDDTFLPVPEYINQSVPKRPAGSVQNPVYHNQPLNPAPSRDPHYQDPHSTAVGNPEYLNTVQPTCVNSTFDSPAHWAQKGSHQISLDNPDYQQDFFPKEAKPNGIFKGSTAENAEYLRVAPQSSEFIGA

COc1cc2ncnc(NC(=O)Nc3ccccc3)c2cc1OC [1-(6,7-dimethoxyquinazolin-4-yl)-3-phenylurea]
activity as an EGF RTK inhibitor: inactive
